Results on 49 compounds are retold here after patent US10759794B2, “2-phenyl-3-(piperazinomethyl)imidazo[1,2-A]pyridine derivatives as blockers of task-1 and task-2 channels, for the treatment of sleep-related breathing disorders” (BAYER PHARMA AKTIENGESELLSCHAFT, priority 2015, dated 2020).

The target of one experiment is human TASK-3 (Homo sapiens (Human), UniProt Q9NPC2). Kind of experiment: Inhibition of recombinant TASK-3 in stably transfected CHO cells (voltage-sensitive dye, FLIPR). Conditions: depolarization induced by 40 mM potassium chloride, Table 2A. It is filed as cell-based. How it is done: (§1) B-2. Inhibition of Recombinant TASK-1 and TASK-3 In Vitro
(§2) The investigations on the inhibition of the recombinant TASK-1 and TASK-3 channels were carried out using stably transfected CHO cells. Here, the compounds according to the invention were tested with administration of 40 mM of potassium chloride in the presence of a voltage-sensitive dye using the method described in detail in the following references [Whiteaker et al., Validation of FLIPR membrane potential dye for high-throughput screening of potassium channel modulators, J. Biomol. Screen. 6 (5), 305-312 (2001); Molecular Devices FLIPR Application Note: Measuring membrane potential using the FLIPR® membrane potential assay kit on Fluorometric Imaging Plate Reader (FLIPR®) systems, http://www.moleculardevices.com/reagents-supplies/assay-kits/ion-channels/flipr-membrane-potential-assay-kits]. The activity of the test substances was determined as their ability to inhibit a depolarization induced in the recombinant cells by 40 mM potassium chloride. The concentration which can block half of this depolarization is referred to as IC50.

A further experiment deals with human TASK-1 (Homo sapiens (Human), UniProt O14649). Description: Inhibition of recombinant TASK-1 in stably transfected CHO cells (voltage-sensitive dye, FLIPR). Type of experiment: cell-based. As to conditions: depolarization induced by 40 mM potassium chloride, Table 2A. The procedure:
as §1, §2

pIC50: −log10 of the molar value.

human TASK-3, sequence (Q9NPC2 whole entry): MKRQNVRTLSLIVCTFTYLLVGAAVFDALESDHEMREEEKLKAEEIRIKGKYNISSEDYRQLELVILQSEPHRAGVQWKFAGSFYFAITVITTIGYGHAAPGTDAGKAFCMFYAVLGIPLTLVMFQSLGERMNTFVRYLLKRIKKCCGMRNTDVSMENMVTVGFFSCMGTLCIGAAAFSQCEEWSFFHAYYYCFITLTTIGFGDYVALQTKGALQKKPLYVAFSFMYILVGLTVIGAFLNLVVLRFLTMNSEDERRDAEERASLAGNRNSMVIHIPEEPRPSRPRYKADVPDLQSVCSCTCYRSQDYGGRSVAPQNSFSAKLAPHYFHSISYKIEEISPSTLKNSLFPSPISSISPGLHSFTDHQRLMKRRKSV
human TASK-1, sequence (O14649 whole entry): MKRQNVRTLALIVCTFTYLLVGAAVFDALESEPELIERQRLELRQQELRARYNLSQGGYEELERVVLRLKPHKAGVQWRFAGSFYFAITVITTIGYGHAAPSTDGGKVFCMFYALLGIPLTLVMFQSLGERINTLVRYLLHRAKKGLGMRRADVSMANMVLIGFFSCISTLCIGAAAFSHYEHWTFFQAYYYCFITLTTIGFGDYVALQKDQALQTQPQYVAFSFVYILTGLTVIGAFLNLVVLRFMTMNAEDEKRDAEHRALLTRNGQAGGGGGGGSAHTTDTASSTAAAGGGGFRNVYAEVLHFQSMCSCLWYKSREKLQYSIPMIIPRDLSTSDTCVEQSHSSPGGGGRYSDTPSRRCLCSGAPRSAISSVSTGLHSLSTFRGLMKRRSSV

For `COc1cccc(C(=O)N2CCN(Cc3c(-c4ccc(Br)cc4)nc4ccccn34)CC2)c1` [Example 5, (4-{[2-(4-Bromophenyl)imidazo[1,2-a]pyridin-3-yl]methyl}piperazin-1-yl)(3-methoxyphenyl)methanone], the negative logarithm of the IC50 (pIC50) was 6.42 at human TASK-3 and 6.08 on human TASK-1.
Consider `O=C(c1cc(F)ccc1Cl)N1CCN(Cc2c(-c3ccc(Br)cc3)nc3ccccn23)CC1` [Example 6, (4-{[2-(4-Bromophenyl)imidazo[1,2-a]pyridin-3-yl]methyl}piperazin-1-yl)(2-chloro-5-fluorophenyl)methanone], for which the negative-log IC50 (pIC50) is 6.44 on human TASK-3 and 6.30 on human TASK-1.
Regarding `O=C(c1ccccc1F)N1CCN(Cc2c(-c3ccc(Cl)cc3)nc3ccccn23)CC1` [Example 7, (4-{[2-(4-Chlorophenyl)imidazo [1,2-a]pyridin-3-yl]methyl}piperazin-1-yl)(2-fluorophenyl)methanone], the pIC50 on human TASK-3 is 7.01; on human TASK-1, 6.46.
Regarding `O=C(C1CCCCC1)N1CCN(Cc2c(-c3ccc(F)cc3)nc3ccccn23)CC1` [Example 8, (4-{[2-(4-Fluorophenyl)imidazo[1,2-a]pyridin-3-yl]methyl}piperazin-1-yl)(cyclohexyl)methanone], the pIC50 at human TASK-3 is 5.60; at human TASK-1, 6.05.
On the same counts, the results for `O=C(C1CCCCC1)N1CCN(Cc2c(-c3ccc(Br)cc3)nc3ccccn23)CC1` [Example 9] are 6.70 and 6.63.
As to `O=C(C1CCC1)N1CCN(Cc2c(-c3ccc(Br)cc3)nc3ccccn23)CC1` [Example 11], the values for the pIC50 on human TASK-3 and at human TASK-1 were 6.62 and 6.42, respectively.
For `COc1ccccc1C(=O)N1CCN(Cc2c(-c3ccc(Br)cc3)nc3ccccn23)CC1` [Example 12], the pIC50 on human TASK-3 is 7.15; at human TASK-1, 6.39.
The corresponding values for `COc1ccc(F)cc1C(=O)N1CCN(Cc2c(-c3ccc(Br)cc3)nc3ccccn23)CC1` [Example 13] are 6.46 and 6.17.
With `Cc1ccccc1C(=O)N1CCN(Cc2c(-c3ccc(Br)cc3)nc3ccccn23)CC1` [Example 14], the pIC50 at human TASK-3 was 6.51; at human TASK-1, 6.32.
With `Cc1ccc(F)cc1C(=O)N1CCN(Cc2c(-c3ccc(Br)cc3)nc3ccccn23)CC1` [Example 15], the pIC50 on human TASK-3 was 6.42; at human TASK-1 it was 5.93.
In the case of `O=C(c1cc(F)ccc1Cl)N1CCN(Cc2c(-c3ccc(Cl)cc3)nc3ccccn23)CC1` [Example 16], the pIC50 on human TASK-3 is 6.96; at human TASK-1, 6.52.
The corresponding values for `O=C(C1CCCCC1)N1CCN(Cc2c(-c3ccc(Cl)cc3)nc3ccccn23)CC1` [Example 17] are 6.29 and 6.11.
Take `O=C(C1CCC1)N1CCN(Cc2c(-c3ccc(Cl)cc3)nc3ccccn23)CC1` [Example 18]: the pIC50 is 6.92 at human TASK-3 and 6.62 on human TASK-1.
As to `COc1cccc(C(=O)N2CCN(Cc3c(-c4ccc(Cl)cc4)nc4ccccn34)CC2)c1` [Example 19], the pIC50 on human TASK-3 was 6.52; at human TASK-1 it was 6.29.
Regarding `COc1ccccc1C(=O)N1CCN(Cc2c(-c3ccc(Cl)cc3)nc3ccccn23)CC1` [Example 20], the figures for the negative-log IC50 (pIC50) at human TASK-3 and on human TASK-1 were 7.28 and 6.52, respectively.
Regarding `COc1ccc(F)cc1C(=O)N1CCN(Cc2c(-c3ccc(Cl)cc3)nc3ccccn23)CC1` [Example 21], the values for the pIC50 at human TASK-3 and at human TASK-1 were 6.82 and 6.34, respectively.
On the same counts, the results for `Cc1ccccc1C(=O)N1CCN(Cc2c(-c3ccc(Cl)cc3)nc3ccccn23)CC1` [Example 22] are 6.85 and 6.41.
As to `Cc1ccc(F)cc1C(=O)N1CCN(Cc2c(-c3ccc(Cl)cc3)nc3ccccn23)CC1` [Example 23], the pIC50 on human TASK-3 was 6.80; at human TASK-1 it was 6.16.
For `O=C(c1cccc(OC(F)(F)F)c1)N1CCN(Cc2c(-c3ccc(Cl)cc3)nc3ccccn23)CC1` [Example 24], the pIC50 at human TASK-3 was 6.09; on human TASK-1 it was 5.94.
As for `O=C(c1cccc(C(F)(F)F)c1)N1CCN(Cc2c(-c3ccc(Cl)cc3)nc3ccccn23)CC1` [Example 25], the figures for the pIC50 at human TASK-3 and at human TASK-1 were 6.09 and 5.72, respectively.
For the compound `O=C(c1ccccn1)N1CCN(Cc2c(-c3ccc(Cl)cc3)nc3ccccn23)CC1` [Example 26], the negative-log IC50 (pIC50) at human TASK-3 is 6.23; on human TASK-1 it was 6.15.
On to `COc1ccc(F)c(C(=O)N2CCN(Cc3c(-c4ccc(Cl)cc4)nc4ccccn34)CC2)c1` [Example 27], for which the pIC50 at human TASK-3 is 6.92; at human TASK-1, 6.23.
Consider `CCOc1ccccc1C(=O)N1CCN(Cc2c(-c3ccc(Cl)cc3)nc3ccccn23)CC1` [Example 28], for which the pIC50 on human TASK-3 was 7.85; at human TASK-1, 6.29.
On the same counts, the results for `COc1ccc(Cl)c(C(=O)N2CCN(Cc3c(-c4ccc(Cl)cc4)nc4ccccn34)CC2)c1` [Example 29] are 7.00 and 5.92.
On the same counts, the results for `O=C(C1CCCCO1)N1CCN(Cc2c(-c3ccc(Cl)cc3)nc3ccccn23)CC1` (centres unmarked) [Example 30] are 6.40 and 5.74.
As for `CC(C)Oc1cccc(C(=O)N2CCN(Cc3c(-c4ccc(Cl)cc4)nc4ccccn34)CC2)c1` [Example 31], the negative-log IC50 (pIC50) at human TASK-3 was 5.89; on human TASK-1, 5.68.
On the same counts, the results for `N#Cc1ccccc1C(=O)N1CCN(Cc2c(-c3ccc(Cl)cc3)nc3ccccn23)CC1` [Example 32] are 6.89 and 6.37.
For `CC(C)c1cccc(C(=O)N2CCN(Cc3c(-c4ccc(Cl)cc4)nc4ccccn34)CC2)c1` [Example 33], the pIC50 at human TASK-3 was 5.70; at human TASK-1, 5.60.
For the compound `CC(C)c1ccccc1C(=O)N1CCN(Cc2c(-c3ccc(Cl)cc3)nc3ccccn23)CC1` [Example 34], the results for the pIC50 at human TASK-3 and on human TASK-1 were 7.20 and 6.40, respectively.
On to `O=C(C1CCCO1)N1CCN(Cc2c(-c3ccc(Cl)cc3)nc3ccccn23)CC1` (centres unmarked) [Example 35], for which the pIC50 at human TASK-3 was 6.10; on human TASK-1 it was 5.90.
On the same counts, the results for `O=C(c1cccc(Cl)c1)N1CCN(Cc2c(-c3ccc(Cl)cc3)nc3ccccn23)CC1` [Example 36] are 6.72 and 6.28.
As to `O=C(c1ccccc1Cl)N1CCN(Cc2c(-c3ccc(Cl)cc3)nc3ccccn23)CC1` [Example 37], the pIC50 at human TASK-3 was 7.22; on human TASK-1, 6.43.
The corresponding values for `O=C(c1cccc(OCC(F)(F)F)n1)N1CCN(Cc2c(-c3ccc(Cl)cc3)nc3ccccn23)CC1` [Example 38] are 7.52 and 6.00.
Regarding `COc1cc(C)cc(C(=O)N2CCN(Cc3c(-c4ccc(Cl)cc4)nc4ccccn34)CC2)n1` [Example 40], the pIC50 on human TASK-3 is 6.11; on human TASK-1 it was 6.00.
The corresponding values for `O=C(c1cccc(OC2CCC2)n1)N1CCN(Cc2c(-c3ccc(Cl)cc3)nc3ccccn23)CC1` [Example 41] are 6.72 and 5.89.
The corresponding values for `COc1ccc(Br)c(C(=O)N2CCN(Cc3c(-c4ccc(Cl)cc4)nc4ccccn34)CC2)n1` [Example 42] are 7.89 and 6.51.
Consider `COc1ccc(Cl)c(C(=O)N2CCN(Cc3c(-c4ccc(Cl)cc4)nc4ccccn34)CC2)n1` [Example 43], for which the pIC50 on human TASK-3 was 8.00; at human TASK-1, 6.66.
The corresponding values for `O=C(c1cccc(OC(F)F)n1)N1CCN(Cc2c(-c3ccc(Cl)cc3)nc3ccccn23)CC1` [Example 44] are 7.77 and 6.57.
With `CCOc1cccc(C(=O)N2CCN(Cc3c(-c4ccc(Cl)cc4)nc4ccccn34)CC2)n1` [Example 45], the pIC50 was 7.20 on human TASK-3 and 5.70 at human TASK-1.
Turning to `O=C(c1cccc(OC2CCOCC2)n1)N1CCN(Cc2c(-c3ccc(Cl)cc3)nc3ccccn23)CC1` [Example 46], the pIC50 on human TASK-3 was 6.62; at human TASK-1, 5.92.
On the same counts, the results for `O=C(C1CCCC1)N1CCN(Cc2c(-c3ccc(F)cc3)nc3ccccn23)CC1` [Example 48] are 6.08 and 6.26.
As for `O=C(C1CCC1)N1CCN(Cc2c(-c3ccc(F)cc3)nc3ccccn23)CC1` [Example 49], the pIC50 on human TASK-3 is 5.77; at human TASK-1, 5.74.
With `COc1ccc(F)cc1C(=O)N1CCN(Cc2c(-c3ccc(F)cc3)nc3ccccn23)CC1` [Example 50], the results for the pIC50 at human TASK-3 and at human TASK-1 were 5.85 and 5.79, respectively.
As for `O=C(c1cc(F)ccc1Cl)N1CCN(Cc2c(-c3ccc(F)cc3)nc3ccccn23)CC1` [Example 51], the pIC50 was 6.00 on human TASK-3 and 5.72 on human TASK-1.
In the case of `COc1ccccc1C(=O)N1CCN(Cc2c(-c3ccc(F)cc3)nc3ccccn23)CC1` [Example 52], the pIC50 at human TASK-3 was 6.25; on human TASK-1, 5.94.
In the case of `CC(C)c1ccc(-c2nc3ccccn3c2CN2CCN(C(=O)c3ccccc3F)CC2)cc1` [Example 53], the pIC50 at human TASK-3 is 6.00; at human TASK-1, 5.55.
The corresponding values for `Cc1ccc(-c2nc3ccccn3c2CN2CCN(C(=O)C3CCCC3)CC2)cc1` [Example 56] are 6.15 and 6.19.
For the compound `Cc1ccc(-c2nc3ccccn3c2CN2CCN(C(=O)C3CCCCC3)CC2)cc1` [Example 57], the pIC50 on human TASK-3 was 5.54; at human TASK-1, 6.02.
On the same counts, the results for `COc1ccccc1C(=O)N1CCN(Cc2c(-c3ccc(C)cc3)nc3ccccn23)CC1` [Example 58] are 5.72 and 5.72.

In general, pIC50 refers to the negative decadic logarithm of the IC50, by convention in mol/L.
